# Laboratory results: ChEMBL document CHEMBL5252509, “In depth analysis of kinase cross screening data to identify chemical starting points for inhibition of the Nek family of kinases” (Medchemcomm, 2018)
# Where “and” joins values, the source holds several entries; their conditions need not be identical. Identical values can stand only once.
# Columns and labels:
# [1] = molecular target: Serine/threonine-protein kinase Nek6 (Homo sapiens) (UniProt Q9HC98); experiment: Inhibition of NEK6 (unknown origin) at 1 uM relative to control
# [2] = molecular target: T1, Serine/threonine-protein kinase Nek9 (Homo sapiens) (UniProt Q8TD19); experiment: Inhibition of NEK9 (unknown origin) at 1 uM relative to control
# T1 sequence (whole entry): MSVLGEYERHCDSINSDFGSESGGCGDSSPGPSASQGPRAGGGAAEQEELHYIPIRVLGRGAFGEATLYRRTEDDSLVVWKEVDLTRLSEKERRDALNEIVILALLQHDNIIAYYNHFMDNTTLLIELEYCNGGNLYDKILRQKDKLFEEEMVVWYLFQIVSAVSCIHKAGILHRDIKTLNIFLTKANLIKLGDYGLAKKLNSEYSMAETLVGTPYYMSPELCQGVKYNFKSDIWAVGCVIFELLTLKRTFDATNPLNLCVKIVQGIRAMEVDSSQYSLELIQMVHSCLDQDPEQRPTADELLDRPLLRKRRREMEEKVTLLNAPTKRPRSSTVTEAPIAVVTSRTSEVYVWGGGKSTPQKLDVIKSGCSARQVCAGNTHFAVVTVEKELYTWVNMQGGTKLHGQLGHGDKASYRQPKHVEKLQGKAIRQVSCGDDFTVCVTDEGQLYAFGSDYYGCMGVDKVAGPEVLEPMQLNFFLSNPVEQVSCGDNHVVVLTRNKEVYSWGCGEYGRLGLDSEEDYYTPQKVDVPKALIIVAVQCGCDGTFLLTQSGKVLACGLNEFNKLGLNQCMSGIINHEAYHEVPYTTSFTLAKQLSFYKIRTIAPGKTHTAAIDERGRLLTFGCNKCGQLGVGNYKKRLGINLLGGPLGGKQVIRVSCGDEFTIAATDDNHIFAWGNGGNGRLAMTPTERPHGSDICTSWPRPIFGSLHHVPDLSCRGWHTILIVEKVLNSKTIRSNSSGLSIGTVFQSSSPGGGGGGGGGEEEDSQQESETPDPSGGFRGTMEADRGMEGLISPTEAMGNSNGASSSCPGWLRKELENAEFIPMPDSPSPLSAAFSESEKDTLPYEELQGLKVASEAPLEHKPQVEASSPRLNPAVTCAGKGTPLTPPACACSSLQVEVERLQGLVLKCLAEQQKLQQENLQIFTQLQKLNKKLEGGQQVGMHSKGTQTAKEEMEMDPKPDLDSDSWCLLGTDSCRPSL
# [3] = molecular target: T2, Serine/threonine-protein kinase Nek5 (Homo sapiens) (UniProt Q6P3R8); experiment: Inhibition of NEK5 (unknown origin) at 1 uM relative to control
# T2 sequence (whole entry): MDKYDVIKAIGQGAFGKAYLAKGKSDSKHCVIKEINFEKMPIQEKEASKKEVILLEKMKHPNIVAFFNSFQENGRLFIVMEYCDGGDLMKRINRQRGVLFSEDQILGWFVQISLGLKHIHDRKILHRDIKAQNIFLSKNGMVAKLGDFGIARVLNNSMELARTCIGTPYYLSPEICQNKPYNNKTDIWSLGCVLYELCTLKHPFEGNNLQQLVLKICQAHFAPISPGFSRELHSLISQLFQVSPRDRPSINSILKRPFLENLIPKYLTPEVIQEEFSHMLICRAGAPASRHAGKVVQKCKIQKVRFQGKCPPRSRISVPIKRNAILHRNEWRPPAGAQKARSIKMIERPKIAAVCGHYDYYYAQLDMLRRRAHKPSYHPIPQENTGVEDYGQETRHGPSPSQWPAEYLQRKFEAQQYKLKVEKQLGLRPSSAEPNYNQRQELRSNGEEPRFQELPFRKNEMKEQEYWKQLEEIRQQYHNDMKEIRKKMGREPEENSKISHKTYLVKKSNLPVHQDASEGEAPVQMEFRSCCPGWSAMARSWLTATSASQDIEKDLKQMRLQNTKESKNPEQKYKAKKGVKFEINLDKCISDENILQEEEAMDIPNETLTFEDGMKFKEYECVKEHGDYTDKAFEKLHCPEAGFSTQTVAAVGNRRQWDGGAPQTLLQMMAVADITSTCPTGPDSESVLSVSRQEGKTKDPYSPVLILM
# [4] = molecular target: T3, Serine/threonine-protein kinase Nek3 (Homo sapiens) (UniProt P51956); experiment: Inhibition of NEK3 (unknown origin) at 1 uM relative to control
# T3 sequence (whole entry): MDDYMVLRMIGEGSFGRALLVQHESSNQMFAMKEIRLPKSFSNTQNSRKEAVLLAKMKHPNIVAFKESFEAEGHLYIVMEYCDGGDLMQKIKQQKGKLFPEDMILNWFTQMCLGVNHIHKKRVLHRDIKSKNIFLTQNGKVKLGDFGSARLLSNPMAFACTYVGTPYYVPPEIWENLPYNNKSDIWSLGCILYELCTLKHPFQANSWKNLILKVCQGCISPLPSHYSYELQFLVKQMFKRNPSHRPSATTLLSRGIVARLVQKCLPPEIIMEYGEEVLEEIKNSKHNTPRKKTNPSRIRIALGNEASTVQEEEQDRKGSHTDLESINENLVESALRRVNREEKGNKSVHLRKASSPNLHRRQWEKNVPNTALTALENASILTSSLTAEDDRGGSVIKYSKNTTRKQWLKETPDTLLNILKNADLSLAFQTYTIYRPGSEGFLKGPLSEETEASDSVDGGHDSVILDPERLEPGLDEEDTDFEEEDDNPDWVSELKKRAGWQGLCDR
# [5] = molecular target: T4, Serine/threonine-protein kinase Nek11 (Homo sapiens) (UniProt Q8NG66); experiment: Inhibition of NEK11 (unknown origin) at 1 uM relative to control
# T4 sequence (whole entry): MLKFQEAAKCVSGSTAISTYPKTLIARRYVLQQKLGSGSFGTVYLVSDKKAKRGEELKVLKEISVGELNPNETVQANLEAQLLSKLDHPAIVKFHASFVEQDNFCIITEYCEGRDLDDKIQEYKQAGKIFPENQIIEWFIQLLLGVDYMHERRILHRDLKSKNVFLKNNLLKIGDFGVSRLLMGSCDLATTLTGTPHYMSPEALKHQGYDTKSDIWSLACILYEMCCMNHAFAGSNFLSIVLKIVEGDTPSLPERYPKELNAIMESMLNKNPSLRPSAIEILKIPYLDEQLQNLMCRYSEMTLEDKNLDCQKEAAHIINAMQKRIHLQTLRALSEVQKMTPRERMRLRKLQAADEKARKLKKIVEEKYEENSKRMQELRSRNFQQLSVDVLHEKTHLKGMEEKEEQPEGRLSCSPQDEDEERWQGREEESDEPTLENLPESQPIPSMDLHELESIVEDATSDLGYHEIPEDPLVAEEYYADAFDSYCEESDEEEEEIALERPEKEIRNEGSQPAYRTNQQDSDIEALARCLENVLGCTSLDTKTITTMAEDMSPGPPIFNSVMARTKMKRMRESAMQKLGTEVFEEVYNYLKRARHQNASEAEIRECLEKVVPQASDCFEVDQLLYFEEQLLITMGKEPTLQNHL
# Sequence of Serine/threonine-protein kinase Nek6 (Homo sapiens) (Q9HC98 whole entry): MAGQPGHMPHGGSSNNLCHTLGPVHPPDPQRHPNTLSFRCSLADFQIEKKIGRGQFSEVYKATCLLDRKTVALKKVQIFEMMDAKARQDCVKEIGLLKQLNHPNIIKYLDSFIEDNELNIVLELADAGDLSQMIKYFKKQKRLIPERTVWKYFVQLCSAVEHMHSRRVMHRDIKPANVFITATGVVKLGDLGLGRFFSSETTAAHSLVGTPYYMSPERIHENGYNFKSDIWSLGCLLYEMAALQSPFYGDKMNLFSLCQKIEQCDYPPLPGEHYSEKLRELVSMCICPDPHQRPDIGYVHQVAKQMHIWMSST
Structure (SMILES),inhibition [1] [%],inhibition [2] [%],inhibition [3],inhibition [4] [%],inhibition [5] [%]
Nc1nccc2scc(-c3ccc4c(c3)CCN4C(=O)Cc3ccccc3)c12,0,18,14%,10,0
COc1ccc(Nc2ncc(C#N)c(Nc3ccccc3C(N)=O)n2)cc1N1CCN(C)CC1,0.1,1.8,0%,6.5,2.5
Cn1cc(-c2cnc(N)c3c(-c4ccc5c(c4)CCN5C(=O)Cc4ccccc4)csc23)cn1,0,0,5%,1,47
Cc1ccccc1CC(=O)N1CCc2cc(-c3cn(C)c4ncnc(N)c34)ccc21,0,0,34%,0,58
Cn1cc(-c2ccc3c(c2)CCN3C(=O)Cc2cccc(C(F)(F)F)c2)c2c(N)ncnc21,0,8,0%,0,14
Cn1cc(-c2ccc3c(c2)CCN3C(=O)Cc2cccc(Cl)c2)c2c(N)ncnc21,11,18,32%,1,0
O=c1[nH]ccc2nc(N[C@@H]3CCCNC3)nc(Nc3ccc(S(=O)(=O)N4CCOCC4)cc3)c12,54,86,49%,11,100
NCCNS(=O)(=O)c1ccc(-c2ccnc3[nH]ccc23)cc1,4,22,44%,14,24
c1ccc(-c2ccnc3[nH]ccc23)cc1,0,0,8%,19,0
COc1cccc(C2=C(Nc3cccc(Cl)c3)C(=O)NC2=O)c1,0,1,0%,5,0
COc1cccc(C2=C(Nc3ccc(Cl)c(C(=O)O)c3)C(=O)NC2=O)c1,0,0,3%,7,27
Nc1nccc2scc(-c3ccc4c(c3)CCN4C(=O)Cc3cc(F)ccc3F)c12,0,4,6%,0,9
Cc1ccc(CC(=O)N2CCc3cc(-c4cn(C)c5ncnc(N)c45)ccc32)cc1,19,20,45%,7,59
O=S(=O)(c1ccc(-c2ccnc3[nH]ccc23)cc1)N1CCCC1,0,28,31%,16,0
CN(C)CCNS(=O)(=O)c1ccc(-c2ccnc3[nH]ccc23)cc1,1,0,1%,0,0
CC(C)Oc1ccc2c(-c3ccnc(Nc4ccc(N5CCN(C)CC5)cc4)n3)cnn2n1,6.3,7.1,0%,1.5,14
O=C1NC(=O)C(c2ccccc2Cl)=C1Nc1cccc(Cl)c1,1,20,7%,56,0
CC(C)c1nc(-c2cccc(NS(=O)(=O)c3ccccc3)c2)c(-c2ccnc(Nc3ccc4c(c3)CN(C)CC4)n2)s1,100,49,100%,73,2.3
COc1cccc(CC(=O)N2CCc3cc(-c4cn(C)c5ncnc(N)c45)ccc32)c1,18,25,24%,4,49
COc1ccc(C2=C(Nc3cccc(C(=O)O)c3)C(=O)NC2=O)cc1,13,2,0%,31,30
Cn1cc(-c2ccc3c(c2)CCN3C(=O)Cc2cccc(F)c2)c2c(N)ncnc21,0,0,28%,11,8
Nc1ncc(-c2cn[nH]c2)c2scc(-c3ccc4c(c3)CCN4C(=O)Cc3ccccc3)c12,3,0,21%,0,87
COc1cc(Nc2ncc3c(C)nc(-c4cc5ccccc5[nH]4)n3n2)cc(OC)c1OC,70,70,93.1% and 99%,89,86
Cn1cc(-c2ccc3c(c2)CCN3C(=O)Cc2ccccc2Cl)c2c(N)ncnc21,3,33,7%,0,0
Cn1cc(-c2ccc3c(c2)CCN3C(=O)Cc2cc(F)cc(C(F)(F)F)c2)c2c(N)ncnc21,6,25,0%,0,8
Cn1cc(-c2ccc3c(c2)CCN3C(=O)Cc2cc(F)cc(F)c2F)c2c(N)ncnc21,18,8,8%,0,38
